Where two headings read alike, the source gives them in different places.
Columns and labels:
[1] = system: MLKL phosphorylation in HT29-L23 human colorectal adenocarcinoma cells; assay: MLKL Phosphorylation High-Content Assay; assay type: cell-based; settings: Homo sapiens
Procedure, shortened: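 Cells incubated six hours at 37° C., then phospho-MLKL (S358) immunostained overnight at 4° C. and imaged by high-content microscopy. Phosphorylation quantified as mean circ-ring average intensity ratio; IC50 and Ymax from 4-parameter logistic fits.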

IL-6 = assay: TNF-Induced SIRS, serum cytokines (IL-6, KC) by ELISA; assay type: in vivo; settings: mouse, relative to 6 mg/kg Nec-1s, read-out: % protection from IL6 increase; for inhibition in vivo at 0.4 mg/kg: 0.4 mg/kg oral gavage 2 h before mTNF; for inhibition in vivo at 1 mg/kg: 1.0 mg/kg oral gavage 2 h before mTNF
Protocol: (§1) TNF-Induced Systemic Inflammatory Response Syndrome (SIRS)
(§2) RIPK1 inhibitors were evaluated for efficacy in vivo using a TNF-dependent model of systemic “shock”, also known as systemic inflammatory response syndrome (SIRS) (Duprez et al. 2011, Immunity 35(6):908-918). Intravenous injection of murine TNF induces a systemic inflammatory response characterized by a decrease in body temperature and an increase in circulating cytokines (IL-6, KC) in the serum. The addition of zVAD-fmk strongly sensitizes mice to TNF-induced shock through the inhibition of caspases (Cauwels et al., 2003). The combination of pretreatment with zVAD-fmk prior to injection of mTNF forms the basis of the RIPK1-dependent, TNF-induced, inflammatory response in this model.
(§3) Female C57/Bl6 mice (9 to 11 weeks old) were obtained from Jackson Labs (Bar Harbor, Me.). Mice were housed in BMS' animal facility with ad libitum access to food and water. Mice were and allowed to acclimate for at least 2 weeks and typically weighed at least 21 grams before being used in any studies. Group size was 6 mice per treatment. All experiments were conducted with the approval of BMS' Institutional Animal Care and Use Committee (IACUC)
(§4) Program compounds were dosed by oral gavage 2 h before IV challenge with 20 μg of murine TNF (#CRT192C, Cell Sciences, Canton, Mass.). zVAD-fmk (16.7 mg/kg) was given IV, 15 min before mTNF injection. The RIPK1 kinase inhibitor, necrostatin-1s (Nec-1s) was used as a positive control and was dosed at 6 mg/kg, IV, 30 minutes before mTNF challenge. mTNF was diluted in endotoxin-free PBS and 20 μg/mouse was injected in a volume of 0.1 ml into the retro-orbital sinus. All IV injections were done via the retro-orbital sinus and injection sites were alternated (left and right sides).
(§5) Blood samples for PK determination were collected into heparinized microtainer blood tubes (Part #365965, Becton Dickinson, Franklin Lakes N.J.) and mixed well. Dried blood spots (DBS) were prepared by pipetting 10 μl of whole blood, in duplicate, onto bioanalysis cards (#GR2261004, Perkin Elmer, Greenville, S.C.). A serum sample was obtained by collecting blood into a separator tube (#450472, Greiner Bio-One, Austria) and centrifuged (10 min at 10,000 RPM) to separate the serum. All blood samples were obtained from the retro-orbital sinus while under isoflurane anesthesia.
Serum cytokines were evaluated by ELISA assay. IL-6 was measured using OPTeia Kit (Becton Dickinson, Franklin Lakes N.J.) while KC was measured using an R&D Duoset kit (R&D Systems Inc. Minneapolis, Minn.)
(§6) Using these assays, the percent protection of body temperature and percent reduction in IL6 cytokine of the following compounds were determined. See Table B. % Protection is relative to a 6 mg/kg dose of Nec-1s (5-((7-Cl-1H-indol-3-yl)methyl)-3-methylimidazolidine-2,4-dione)).

[2] = system: Female C57/Bl6 mice, mTNF + zVAD-fmk induced hypothermia; assay: TNF-Induced Systemic Inflammatory Response Syndrome (SIRS), body temperature; assay type: in vivo; settings: mouse, 3 h after mTNF, relative to 6 mg/kg Nec-1s, read-out: % protection from body temp loss; for inhibition in vivo at 0.4 mg/kg: 0.4 mg/kg oral gavage 2 h before mTNF; for inhibition in vivo at 1 mg/kg: 1.0 mg/kg oral gavage 2 h before mTNF
Protocol: as §1, §2, §3, §4
Three (3) hours after mTNF injection, mice were assessed for hypothermia and mortality. Rectal body temperature was recorded with an electric thermometer (Acorn Series Model JKT with a Ret-3 probe, Oakton Instruments Vernon Hills Ill. 60061).
as §6

[3] = Exposure in TNF-induced SIRS study (blood samples for PK determination); assay type: in vivo; settings: mouse
Protocol: as §4, §5

[4] = target: T1, His-GST-TVMV-hRIPK1(1-324) (Homo sapiens, UniProt Q13546); assay: RIPK1 HTRF Binding Assay
T1 construct: The coding region of human RIPK1(1-324) flanked by NdeI site at 5′ end; made in house; host or cells: Spodoptera frugiperda (Sf9) insect cells, baculovirus
T1 sequence (Q13546 1-324): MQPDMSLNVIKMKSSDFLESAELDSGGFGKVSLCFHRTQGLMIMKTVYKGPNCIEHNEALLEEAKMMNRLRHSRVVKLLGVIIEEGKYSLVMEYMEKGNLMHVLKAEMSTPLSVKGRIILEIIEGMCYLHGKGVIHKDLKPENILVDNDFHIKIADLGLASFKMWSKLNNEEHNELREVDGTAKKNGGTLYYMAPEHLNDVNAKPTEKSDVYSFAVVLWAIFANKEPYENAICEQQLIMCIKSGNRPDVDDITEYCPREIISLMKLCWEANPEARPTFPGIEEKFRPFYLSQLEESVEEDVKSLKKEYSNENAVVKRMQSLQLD

[5] = 0.1 mg/kg oral gavage 2 h before mTNF
[6] = x marks IC50 class <20 nM, read-out: RIPK1 HTRF binding <20 nM
[7] = x marks IC50 class 20-200 nM, read-out: pMLKL cell activity 20-200 nM
[8] = x marks IC50 class 20-200 nM, read-out: RIPK1 HTRF binding 20-200 nM
[9] = x marks IC50 class >200 nM, read-out: pMLKL cell activity >200 nM
[10] = x marks IC50 class >200 nM, read-out: RIPK1 HTRF binding >200 nM

Question: For `COc1ncc(-c2ccn3nc(N)nc3c2)cc1C(=O)NC(C)c1ccccc1OC(F)(F)F` (single isomer, unassigned) [Example 38-1, 5-{2-Amino-[1,2,4]triazolo[1,5-a]pyridin-7-yl}-2-methoxy-N-{1-[2-(trifluoromethoxy)phenyl]ethyl}pyridine-3-carboxamide], which IC50 ([1]; x marks IC50 class <20 nM, read-out: pMLKL cell activity <20 nM) is on record?
Answer: < 20 nM

Question: And the inhibition in vivo at 0.1 mg/kg (IL-6; [5])?
Answer: 93%

Question: And the inhibition in vivo at 0.1 mg/kg [2, 5]?
Answer: 80%

Question: What about the “Exposure” value ([3]; 0.1 mg/kg oral gavage) of the same compound?
Answer: 12 nM

Question: And the IC50 [4, 6]?
Answer: < 20 nM

Question: With `COc1ncc(-c2ccn3nc(N)nc3c2)cc1C(=O)NCc1cccc(OC(F)(F)F)c1` [Example 58, 5-{2-Amino-[1,2,4]triazolo[1,5-a]pyridin-7-yl}-2-methoxy-N-{[3-(trifluoromethoxy)phenyl]methyl}pyridine-3-carboxamide] as the compound, how does the IC50 [1, 7] read?
Answer: 20 to 200 nM

Question: What about the inhibition in vivo at 0.4 mg/kg (IL-6) of the same compound?
Answer: 78%

Question: What about the inhibition in vivo at 0.4 mg/kg [2] of the same compound?
Answer: 113%

Question: What about the “Exposure” value ([3]; 0.4 mg/kg oral gavage) of the same compound?
Answer: 409 nM

Question: What about the IC50 [4, 6] of the same compound?
Answer: < 20 nM

Question: With `COc1ncc(-c2ccn3nc(N)nc3c2)cc1C(=O)NCc1ccccc1OC(F)(F)F` [Example 74, 5-{2-Amino-[1,2,4]triazolo[1,5-a]pyridin-7-yl}-2-methoxy-N-{[2-(trifluoromethoxy)phenyl]methyl}pyridine-3-carboxamide] as the compound, how does the IC50 [1, 7] read?
Answer: 20 to 200 nM

Question: And the inhibition in vivo at 0.4 mg/kg (IL-6)?
Answer: 87%

Question: And the inhibition in vivo at 0.4 mg/kg [2]?
Answer: 115%

Question: What about the “Exposure” value ([3]; 0.4 mg/kg oral gavage) of the same compound?
Answer: 117 nM

Question: And the IC50 [4, 6]?
Answer: < 20 nM

Question: For `COc1ncc(-c2ccn3nc(N)nc3c2)cc1C(=O)NCCCc1ccccc1` [Example 102, 5-{2-amino-[1,2,4]triazolo[1,5-a]pyridin-7-yl}-2-methoxy-N-(4-phenylpropyl)pyridine-3-carboxamide], which IC50 [1, 7] is on record?
Answer: 20 to 200 nM

Question: And the inhibition in vivo at 1 mg/kg (IL-6)?
Answer: 82%

Question: What about the inhibition in vivo at 1 mg/kg [2] of the same compound?
Answer: 107%

Question: What about the “Exposure” value ([3]; 1.0 mg/kg oral gavage) of the same compound?
Answer: 1287 nM

Question: What about the IC50 [4, 8] of the same compound?
Answer: 20 to 200 nM

Question: For `Cc1ncc(-c2ccn3nc(N)nc3c2)cc1C(=O)NC(C)c1cccc(OC(F)(F)F)c1` (stereo not drawn) [Example 251, 5-{2-amino-[1,2,4]triazolo[1,5-a]pyridin-7-yl}-2-methyl-N-{1-[3-(trifluoromethoxy)phenyl]ethyl}pyridine-3-carboxamide], which IC50 [1, 7] is on record?
Answer: 20 to 200 nM

Question: What about the inhibition in vivo at 1 mg/kg (IL-6) of the same compound?
Answer: 97%

Question: And the inhibition in vivo at 1 mg/kg [2]?
Answer: 86%

Question: And the “Exposure” value ([3]; 1.0 mg/kg oral gavage)?
Answer: 1208 nM

Question: Which IC50 [1, 7] does the source give for `COc1ncc(-c2ccn3nc(N)nc3c2)cc1NC(=O)Cc1cccc(OC(F)(F)F)c1` [Example 415, N-(5-(2-amino-[1,2,4]triazolo[1,5-a]pyridin-7-yl)-2-methoxypyridin-3-yl)-2-(3-(trifluoromethoxy)phenyl)acetamide] here?
Answer: 20 to 200 nM

Question: And the IC50 [4, 8]?
Answer: 20 to 200 nM

Question: What does the source list for `COc1ncc(-c2ccn3nc(N)nc3c2)cc1NC(=O)Cc1cccc(C(F)(F)F)c1` [Example 416, N-(5-(2-amino-[1,2,4]triazolo[1,5-a]pyridin-7-yl)-2-methoxypyridin-3-yl)-2-(3-(trifluoromethyl)phenyl)acetamide]?
Answer: IC50 [1, 9]: > 200 nM; IC50 [4, 8]: 20 to 200 nM

Question: Which results are given for `COc1ncc(-c2ccn3nc(N)nc3c2)cc1NC(=O)Cc1ccccc1OC(F)(F)F` [Example 417, N-(5-(2-amino-[1,2,4]triazolo[1,5-a]pyridin-7-yl)-2-methoxypyridin-3-yl)-2-(2-(trifluoromethoxy)phenyl)acetamide]?
Answer: IC50 [1, 9]: > 200 nM; IC50 [4, 8]: 20 to 200 nM

Question: What does the source list for `Cc1ncc(-c2ccn3nc(N)nc3c2)cc1NC(=O)c1cc(OC(F)(F)F)ccc1F` [Example 419, N-(5-(2-amino-[1,2,4]triazolo[1,5-a]pyridin-7-yl)-2-methylpyridin-3-yl)-2-fluoro-5-(trifluoromethoxy)benzamide]?
Answer: IC50 [1, 9]: > 200 nM; IC50 [4, 6]: < 20 nM

Question: With `Cc1ncc(-c2ccn3nc(N)nc3c2)cc1NC(=O)Cc1cc(OC(F)(F)F)ccc1F` [Example 420, N-(5-(2-amino-[1,2,4]triazolo[1,5-a]pyridin-7-yl)-2-methylpyridin-3-yl)-2-(2-fluoro-5-(trifluoromethoxy)phenyl)acetamide] as the compound, how does the IC50 [1, 7] read?
Answer: 20 to 200 nM

Question: What about the IC50 [4, 6] of the same compound?
Answer: < 20 nM

Question: Which IC50 [1, 9] does the source give for `Cc1ncc(-c2ccn3nc(N)nc3c2)cc1C(=O)NCC(C)(O)Cc1ccc(F)cc1` (stereo not drawn) [Example 421, 5-(2-amino-[1,2,4]triazolo[1,5-a]pyridin-7-yl)-N-(3-(4-fluorophenyl)-2-hydroxy-2-methylpropyl)-2-methylnicotinamide] here?
Answer: > 200 nM

Question: And the IC50 [4, 8]?
Answer: 20 to 200 nM

Question: What does the source list for `Cc1ncc(-c2ccn3nc(N)nc3c2)cc1C(=O)N1CCCC(C(O)c2ccc(F)cc2)C1` (stereo not drawn) [Example 423, (5-(2-amino-[1,2,4]triazolo[1,5-a]pyridin-7-yl)-2-methylpyridin-3-yl)(3-((4-fluorophenyl)(hydroxy)methyl)piperidin-1-yl)methanone]?
Answer: IC50 [1, 9]: > 200 nM; IC50 [4, 10]: > 200 nM

Question: For `COc1ncc(-c2ccn3nc(N)nc3c2)cc1C(=O)N1CCCC(Sc2ccccc2)C1` (stereo not drawn) [Example 424, (5-(2-amino-[1,2,4]triazolo[1,5-a]pyridin-7-yl)-2-methoxypyridin-3-yl)(3-(phenylthio)piperidin-1-yl)methanone], which IC50 [1, 7] is on record?
Answer: 20 to 200 nM

Question: And the IC50 [4, 8]?
Answer: 20 to 200 nM

Question: For `COc1ncc(-c2ccn3nc(N)nc3c2)cc1C(=O)N1CCOC(c2ccccc2)C1` (stereo not drawn) [Example 425], which IC50 [1, 9] is on record?
Answer: > 200 nM

Question: And the IC50 [4, 10]?
Answer: > 200 nM

Question: With `COc1ncc(-c2ccn3nc(N)nc3c2)cc1C(=O)NC1CCCC(NC(=O)OC(C)(C)C)C1` (stereo not drawn) [Example 426, tert-butyl (3-(5-(2-amino-[1,2,4]triazolo[1,5-a]pyridin-7-yl)-2-methoxynicotinamido)cyclohexyl)carbamate] as the compound, how does the IC50 [1, 9] read?
Answer: > 200 nM

Question: What about the IC50 [4, 10] of the same compound?
Answer: > 200 nM

Question: With `COc1ncc(-c2ccn3nc(N)nc3c2)cc1C(=O)N1CCCC(C(=O)Cc2ccccc2)C1` (stereo not drawn) [Example 427, 1-(1-(5-(2-amino-[1,2,4]triazolo[1,5-a]pyridin-7-yl)-2-methoxynicotinoyl)piperidin-3-yl)-2-phenylethan-1-one] as the compound, how does the IC50 [1, 7] read?
Answer: 20 to 200 nM

Question: What about the IC50 [4, 8] of the same compound?
Answer: 20 to 200 nM

Question: Which IC50 [1, 9] does the source give for `COc1ncc(-c2ccn3nc(N)nc3c2)cc1C(=O)N1CCOC(Cc2ccccc2)C1` (stereo not drawn) [Example 428, (5-(2-amino-[1,2,4]triazolo[1,5-a]pyridin-7-yl)-2-methoxypyridin-3-yl)(2-benzylmorpholino)methanone] here?
Answer: > 200 nM

Question: What about the IC50 [4, 8] of the same compound?
Answer: 20 to 200 nM
